This is an account of results in US20130274180A1, “Pharmaceutical Compositions” (priority 2005, published 2013).

SMILES strings stand for the structures. Bounds are passed on as bounds.

The format of data set [1] is physicochemical. The text has this: The manufacture of an amorphous solid dispersion containing VX-950 presented several challenges. […] Therefore, an appropriate solvent or solvent mixture is crucial to optimizing the processing and production of a solid dispersion.
The nature of a further data set: in vivo. The note with it: rat, po.
Data set [2] can be described thus: Effect of SLS concentration on apparent solubility (Example 10). The format is physicochemical. The note with it: VX-950 (95% L/5% D). The protocol:
The effect of SLS concentration on the apparent solubility of VX-950 solid dispersions were tested.

Consider `CCC[C@H](NC(=O)[C@@H]1[C@H]2CCC[C@H]2CN1C(=O)[C@@H](NC(=O)[C@@H](NC(=O)c1cnccn1)C1CCCCC1)C(C)(C)C)C(=O)C(=O)NC1CC1` [VX-950], for which, in data set [1], the aqueous solubility result is recorded as “virtually undetectable”, the “pH dependence of aqueous solubility” value was “not pH-dependent” and the solubility in water result was “highly insoluble”. This compound also returned a bioavailability in the data set “in vivo” of under 0.5%.

For the compound `CCC[C@H](NC(=O)[C@@H]1[C@H]2CCC[C@H]2CN1C(=O)[C@@H](NC(=O)[C@@H](NC(=O)c1cnccn1)C1CCCCC1)C(C)(C)C)C(=O)C(=O)NC1CC1` [No Excipients], in data set [2], the “% dissolved in water @ 5 min.” value was 2.7%.
